Measurements from US20190169597A1, “GENOME EDITING ENHANCERS” (bluebird bio, Inc., priority 2016, published 2019).
“Also recorded” adds a separate entry of the source. Counter-ions that a name gives are not always drawn.

What was measured:
[1] = tested on: TCRα gene in primary human T cells; assay: Small molecule screen: megaTAL-mediated disruption of the TCRα gene detected by loss of CD3 cell surface staining; assay type: cell-based; details: 10 μM, 24 hours at 37° C., then three more days; proportion of CD4/CD8+ cells negative for CD3
Protocol: A small molecule screen (FIG. 1) was performed to identify candidate soluble factors which could modulate the efficiency of genomic editing at the TCR locus in primary human T cells.

[2] = tested on: TCRα gene in primary T cells; assay: Dose response of megaTAL-Trex2 TCRα gene disruption (NHEJ editing efficiency) in primary T cells; assay type: cell-based, human; details: 24 hours at 30° C. or 37° C.
Protocol: (§1) T cells were purified, activated and electroporated with mRNA encoding TCRα-targeting megaTAL-Trex2 fusion as described in Example 1. Electroporated cells were cultured for 24 hours at either 30° C. or 37° C. with Tilorone, Aminacrine, Homidium Bromide (Ethidium Bromide) and Harmine. Cells were then washed to remove residual compound and cultured for an additional three days. After the three days of culture, the cells were stained with CD4, CD8 and CD3 and analyzed by flow cytometery as described in Example 1.

primary T cells = assay: Dose response of primary T cell viability and yield; assay type: cell-based, human; details: 24 hours at 30° C. or 37° C.
Protocol: as §1

[3] = tested on: TCRα locus in primary human T cells; assay: Aminacrine HDR assay: megaTAL-induced HDR of AAV MND-GFP transgene at the TCRα locus; assay type: cell-based; details: for % GFP positive cells: megaTAL +
Text: Adeno-associated virus (AAV) plasmids containing transgene cassettes comprising a promoter, a transgene encoding a fluorescent protein, and a polyadenylation signal were designed and constructed. The integrity of AAV ITR elements was confirmed with XmaI digest. The transgene expression cassette was placed between two homology regions within exon 1 of the TCRα gene to enable targeting by homologous recombination (AAV targeting vector) using a TCRα-targeting megaTAL. The 5′ and 3′ homology regions were ˜1500 bp and ˜1000 bp in length, respectively, and neither homology region contained the complete megaTAL target site. The transgene expression cassette contained a myeloproliferative sarcoma virus enhancer, negative control region deleted, d1587rev primer-binding site substituted (MND) promoter operably linked to a polynucleotide encoding a fluorescent polypeptide, e.g., green fluorescent protein (GFP). The expression cassettes also contain the SV40 late polyadenylation signal.
Recombinant AAV-6 (rAAV) was prepared by transiently co-transfecting HEK 293T cells with one or more plasmids providing the replication, capsid, and adenoviral helper elements necessary. rAAV was purified from the co-transfected HEK 293T cell culture using ultracentrifugation in an iodixanol-based gradient.
MegaTAL-induced homology directed repair (HDR) was evaluated in primary human T cells activated with CD3 and CD28 and cultured in complete media supplemented with IL-2. […] Controls included T cells containing megaTAL or rAAV targeting vector alone. Cells were cultured overnight at 30° C. in the presence or absence of two different doses of aminacrine. Five days post electroporation the frequency of GFP+ T cells was measured by flow cytometry.

[4] = tested on: BCL11A erythroid enhancer locus in primary human CD34+ cells; assay: HDR of AAV BFP template at the BCL11A erythroid enhancer with BCL11A megaTAL in CD34+ cells; assay type: cell-based; details: aminacrine 0.3 μM, 1.0 μM, 3.0 μM for 24 hours
Protocol: Adeno-associated virus (AAV) plasmids containing a promoter, a GFP or BFP reporter transgene and a polyadenylation signal were designed, constructed, and verified. The transgene was flanked by either 1.3 kb and 1.0 kb homology arms to the BCL11A erythroid enhancer locus at DHS58 (Bauer et al., Science. 342(6155): 253-7 (2013)). rAAV is generated by transient transfection of HEK293T cells, as described in Example 3.
(§2) Primary human peripheral blood-derived CD34+ cells were cultured in cytokine-supplemented media for 72 hours. Cells were washed and electroporated with either an mRNA encoding a megaTAL specific for the human BCL11A erythroid enhancer region or a megaTAL targeting the human CCR5 locus. Cells were then incubated with AAV vector with or without aminacrine at concentrations of 0 μM, 0.3 μM, 1.0 μM, and 3.0 μM for 24 hours, washed and cultured in cytokine-supplemented media. HDR was analyzed at regular timepoints by flow cytometry to determine BFP fluorescence.

[5] = tested on: CCR5 locus in primary human CD34+ cells; assay: Non-target control: CCR5-specific megaTAL combined with BCL11A-targeting AAV template in CD34+ cells; assay type: cell-based; details: aminacrine 0.3-3.0 μM for 24 hours
Protocol: as §2

[6] = tested on: human peripheral blood CD34+ cells; assay: Methylcellulose colony forming assay of edited CD34+ cells; assay type: cell-based
Protocol: (§3) A potential caveat with using small molecules to enhance gene repair is the impact on hematopoietic stem and progenitor cell survival. The methylceulluose colony forming assay was used to determine the impact of aminacrine treatment on hematopoietic stem and progenitor cell survival in vitro. Human peripheral blood CD34+ cells were cultured in cytokine supplemented media, electroporated with mRNA encoding BCL11A-specific megaTAL and transduced with BCL11A-HDR AAV vector, as described in Example 4.
(§4) Cells were cultured in the presence or absence of aminacrine during the first 24 hours post-electroporation. Following this post-electroporation recovery step, cells were counted and plated into methylcellulose media.
After 14 days in methylcellulose culture, the erythroid burst-forming units (BFU) and hematopoietic colony forming units (CFU) were scored based on frequency and morphology. […] FIG. 6.

[7] = tested on: BCL11A locus in primary human hematopoietic stem and progenitor cells; assay: HDR in methylcellulose colonies derived from CD34+ cells, by flow cytometry; assay type: cell-based; details: samples treated with both megaTAL and rAAV vector
Protocol: as §3, §4
To determine whether treatment with aminacrine could yield elevated HDR rates in methylcellulose colonies derived from primary human hematopoietic stem and progenitor cells, colonies were harvested and analyzed by flow cytometry. […] FIG. 7.

[8] = tested on: BCL11A erythroid enhancer region in primary human CD34+ cells; assay: HDR in bulk CD34+ cell population with BCL11A megaTAL and AAV donor template; assay type: cell-based; details: aminacrine 1.0 μM for 24 hours
Protocol: as §2, with “48” for “72”, “with” for “with either”, “region.” for “region or a megaTAL targeting the human CCR5 locus.”, “a concentration” for “concentrations”, “of” for “of 0 μM, 0.3 μM,”, “1.0” for “1.0 μM, and 3.0”

primary human T cells = assay: Small molecule screen: cell yield (flow cytometry events in the live gate); details: 10 μM, 24 hours at 37° C., then three more days; number of flow cytometry events in the live gate
Protocol: Briefly, purified CD3+ primary human T cells were activated with CD3/CD28 magnetic beads and cultured for 48 hours in IL-2 supplemented complete RPMI media prior to bead removal. After bead removal, T cells were washed and electroporated with in vitro transcribed mRNA encoding a T cell receptor alpha (TCRα) targeting megaTAL-Trex2 fusion mRNA. Cells were then distributed into 384-well format and contacted with a library of ˜2000 known drugs, natural products, and other bioactive components (Microsource Discovery System's Spectrum Collection), with each drug at a final concentration of 10 μM. Cells were cultured with the compounds for 24 hours at 37° C. and then washed and cultured for an additional three days. Cells were then stained for CD3, CD4, and CD8 surface markers, and subjected to high-throughput volumetric flow cytometric analysis.
The number of flow cytometry events in the “live” gate of the FSC/SSC profile was used as a measure of cell yield.

SMILES	% CD3 negative [1] [%]	efficiency of TCRα disruption (proportion of CD3-negative cells), in words [2]	Cell Yield (primary human T cells)	also measured
Nc1c2ccccc2nc2ccccc12 [Aminacrine, 9-aminoacridine]	82.8	Enhance MegaTAL-Mediated Gene Disruption; also recorded: substantially enhanced gene disruption	13621	T cell viability and yield, in words (primary T cells): minimal impact on cell viability; % GFP+ (frequency of HDR events) ([3]; 10 μM aminacrine following megaTAL transfection, 18% without aminacrine): 36%; % GFP positive cells ([3]; Donor 783, Aminacrine 2 μM, AAV-GFP +): 25%; % GFP positive cells ([3]; Donor 783, Aminacrine 2 μM, AAV-GFP −): 0; % GFP positive cells ([3]; Donor 783, Aminacrine 10 μM, AAV-GFP +): 36%; % GFP positive cells ([3]; Donor 783, Aminacrine 10 μM, AAV-GFP −): 0; % GFP positive cells ([3]; Donor 855, Aminacrine 2 μM, AAV-GFP +): 41%; % GFP positive cells ([3]; Donor 855, Aminacrine 2 μM, AAV-GFP −): 0; % GFP positive cells ([3]; Donor 855, Aminacrine 10 μM, AAV-GFP +): 38%; % GFP positive cells ([3]; Donor 855, Aminacrine 10 μM, AAV-GFP −): 0; frequency of HDR events (% GFP+ cells), in words ([3]; T cells, aminacrine 2 μM and 10 μM overnight at 30° C.): concentration-dependent increase; HDR frequency at the BCL11A locus (% BFP+ cells), in words [4]: concentration-dependent increase in HDR frequency; Template capture via a non-homology driven NHEJ pathway, in words [5]: not enhanced; proportion of BFP+ cells with CCR5-specific megaTAL and BCL11A-targeting AAV template, in words [5]: did not significantly increase; proportion of BFP+ cells with CCR5-specific megaTAL and BCL11A-targeting AAV template, in words ([5]; listed as aminacrine): not at the non-target CCR5 locus; lineage output of BFU and CFU colonies, in words ([6]; 14 days in methylcellulose culture, aminacrine during first 24 hours post-electroporation): comparable lineage output and showed no overt lineage skewing; hematopoietic stem and progenitor cell survival, in words ([6]; methylcellulose colony forming assay): does not Adversely Affect; proportion of cells undergoing HDR in methylcellulose colonies, in words [7]: increased the proportion of cells undergoing HDR; HDR frequency at the BCL11A locus (% BFP+ cells) in bulk CD34+ cells, in words [8]: increased HDR frequency; HDR frequency at the BCL11A locus (% BFP+ cells) in bulk CD34+ cells, in words ([8]; listed as aminacrine): increases HDR
C[C@@H]1C[C@@H]([C@H](O)CC2CC(=O)NC(=O)C2)C(=O)[C@@H](C)C1 [Cyclohexamide]	68.7	–	4166	–
COc1cccc2c1C(=O)c1c(O)c3c(c(O)c1C2=O)C[C@@](O)(C(C)=O)C[C@@H]3O[C@H]1C[C@H](N)[C@H](O)[C@H](C)O1 [Daunorubicin]	73.3	–	35	–
CCOc1ccc2nc3cc(N)ccc3c(N)c2c1 [Ethacridine Lactate]	70.4	–	14179	–
COc1ccc2c(c1)[nH]c1c(C)nccc12 [Harmine]	75.1	Enhance MegaTAL-Mediated Gene Disruption	9581	–
CC[n+]1c(-c2ccccc2)c2cc(N)ccc2c2ccc(N)cc21 [Homidium Bromide]	80.3	Enhance MegaTAL-Mediated Gene Disruption	1023	–
CCN(CC)CCNc1ccc(CO)c2sc3ccccc3c(=O)c12 [Hycanthone]	74.1	–	10012	–
OC[C@H]1O[C@@H](n2cnc3c(NCc4ccco4)ncnc32)[C@H](O)[C@@H]1O [Kinetin Riboside]	70.8	–	1668	–
C[n+]1cc2c3c(ccc2c2ccc4cc5c(cc4c21)OCO5)OCO3 [Sanguinarine Sulfate]	71.1	–	2346	–
CCN(CC)CCOc1ccc2c(c1)C(=O)c1cc(OCCN(CC)CC)ccc1-2 [Tilorone]	86.8	Enhance MegaTAL-Mediated Gene Disruption	310	–
